“And” between values parts separate entries of the source, which are not always exact repeats. Identical values can stand only once. “Also recorded” adds a separate entry of the source. Like-named read-outs stand apart in the source and are kept apart here. Marks after values point to notes of the source that are not given here.
Tests used:
PARP1 [1] = target: T1, PARP1 (Homo sapiens, UniProt P09874); assay: Release of fluorescently labeled p18mer DNA (fluorescence polarization) upon NAD+ addition, KI determination for PARPi, with or without HPF1; type: biochemical; set-up: Wild-type PARP1 and PARP2 were expressed and purified as previously described; made in house;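 also: PARP1 bound to fluorescein-tagged DNA and preincubated with inhibitor, then high NAD+ added, drop in fluorescence polarization tracked as the DNA dissociates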;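 as to slope: slope of the inhibitor-concentration replot from which KI is derived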
T1 sequence (P09874 whole entry): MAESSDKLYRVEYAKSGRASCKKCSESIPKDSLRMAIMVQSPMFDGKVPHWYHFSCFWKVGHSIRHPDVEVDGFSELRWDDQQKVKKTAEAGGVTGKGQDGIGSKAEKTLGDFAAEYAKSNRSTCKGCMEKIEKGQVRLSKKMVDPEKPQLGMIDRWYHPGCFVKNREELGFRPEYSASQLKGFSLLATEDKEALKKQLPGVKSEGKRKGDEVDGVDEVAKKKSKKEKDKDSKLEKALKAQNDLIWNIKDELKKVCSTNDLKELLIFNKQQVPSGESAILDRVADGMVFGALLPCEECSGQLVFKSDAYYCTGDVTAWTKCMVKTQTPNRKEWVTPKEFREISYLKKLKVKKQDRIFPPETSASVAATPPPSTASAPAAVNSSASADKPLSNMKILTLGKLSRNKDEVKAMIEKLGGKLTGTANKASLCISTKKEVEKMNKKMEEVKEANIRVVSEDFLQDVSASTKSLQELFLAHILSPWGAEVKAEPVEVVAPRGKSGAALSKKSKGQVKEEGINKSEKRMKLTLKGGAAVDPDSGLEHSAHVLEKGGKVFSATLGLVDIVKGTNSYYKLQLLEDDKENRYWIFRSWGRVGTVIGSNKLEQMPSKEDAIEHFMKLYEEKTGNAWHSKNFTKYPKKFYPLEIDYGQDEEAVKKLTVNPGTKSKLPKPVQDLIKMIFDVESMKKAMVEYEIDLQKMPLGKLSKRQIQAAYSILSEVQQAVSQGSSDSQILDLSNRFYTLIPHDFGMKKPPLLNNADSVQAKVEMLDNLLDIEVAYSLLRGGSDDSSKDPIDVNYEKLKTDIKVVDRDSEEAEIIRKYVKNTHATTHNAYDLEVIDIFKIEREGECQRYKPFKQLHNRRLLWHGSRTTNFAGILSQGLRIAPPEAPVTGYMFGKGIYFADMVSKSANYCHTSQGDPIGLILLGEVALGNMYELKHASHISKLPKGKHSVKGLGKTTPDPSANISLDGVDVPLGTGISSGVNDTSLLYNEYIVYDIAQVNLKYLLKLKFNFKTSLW
Method: (§1) Starting with a complex of PARP1 or PARP2 bound to a PARPi and fluorescently labeled DNA, we monitor the loss of fluorescence polarization upon addition of high concentrations of NAD^+ (2 mM) as the labeled DNA is released from the PARylated PARPs (Fig. 1a).
(§2) Intuitively one might expect the observed rate of release of labeled DNA to reflect the slow dissociation of PARPi from the complex (koff; see Fig. 1a). However, the kinetics are actually more complex as there is competition between the inhibitor re-binding (kon[I]) and the binding of, and reaction with, NAD^+ (k2[NAD^+]) (Fig. 1a).
(§3) Next, 10 µL of PARP1 or PARP2 (10 nM) premixed with fluorescein labeled p18mer DNA (5 nM), was added to the various dilutions of PARPi and then incubated for 30 min to ensure complete association. Dissociation of labeled DNA was initiated by addition of 10 µL of NAD^+ (2 mM). […] We emphasize that the same correction is applied to the data for all PARPi. […] We can use the KI (derived from the slope of the replot, Fig. 2) and the minimal koff to calculate a minimal kon (KI = koff/kon, Supplementary Table 2).

PARP2 [2] = target: T2, PARP2 (Homo sapiens, UniProt Q9UGN5); assay: as above; type: biochemical
T2 construct: Wild-type PARP1 and PARP2 were expressed and purified as previously described; made in house
T2 sequence (Q9UGN5 whole entry): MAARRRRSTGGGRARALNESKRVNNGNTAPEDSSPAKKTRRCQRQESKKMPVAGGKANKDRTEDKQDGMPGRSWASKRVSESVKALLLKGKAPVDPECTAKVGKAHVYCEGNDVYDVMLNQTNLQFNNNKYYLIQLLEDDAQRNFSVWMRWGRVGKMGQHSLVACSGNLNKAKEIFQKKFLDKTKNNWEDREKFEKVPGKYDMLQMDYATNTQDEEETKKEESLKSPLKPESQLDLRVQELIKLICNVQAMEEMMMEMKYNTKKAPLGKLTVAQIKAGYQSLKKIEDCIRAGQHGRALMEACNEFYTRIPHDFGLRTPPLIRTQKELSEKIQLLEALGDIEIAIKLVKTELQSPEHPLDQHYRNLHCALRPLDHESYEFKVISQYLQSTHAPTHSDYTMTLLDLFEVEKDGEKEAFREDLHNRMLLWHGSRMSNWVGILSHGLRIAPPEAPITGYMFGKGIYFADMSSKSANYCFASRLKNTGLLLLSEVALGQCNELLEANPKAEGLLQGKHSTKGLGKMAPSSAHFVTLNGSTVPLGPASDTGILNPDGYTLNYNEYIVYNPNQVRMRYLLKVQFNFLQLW
Method: as §1, §2, §3

PARP1 [3] = target: T1, PARP1; details: cited from earlier work
PARP2 [4] = target: T2, PARP2; assay: Fluorescence polarization association/dissociation of fl-Ola, with p18mer or Nuc165, with or without HPF1; type: binding; set-up: On (individual replicates): unit not given here;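 as to Kd: fluorescence polarization read every minute over 1000 min, association and dissociation traces fitted to a single exponential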;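 as to Off (individual replicates): fluorescence polarization read every minute over 1000 min, association and dissociation traces fitted to a single exponential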;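 as to On (individual replicates): fluorescence polarization read every minute over 1000 min, association and dissociation traces fitted to a single exponential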;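 as to On average: fluorescence polarization read every minute over 1000 min, association and dissociation traces fitted to a single exponential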
PARP1 [5] = target: T1, PARP1; assay: as above; type: binding; set-up: Wild-type PARP1 and PARP2 were expressed and purified as previously described; made in house; on rate (observed, single run): unit not given here
[6] = PARP1, +HPF1, single experiment
[7] = PARP1, without HPF1, single experiment
[8] = PARP2, +HPF1, single experiment
[9] = PARP2, without HPF1 (apo), single experiment
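For slope in this document: slope of the inhibitor-concentration replot from which KI is derived.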

SMILES: NC(=O)c1cccc2[nH]c(-c3ccc([C@@H]4CCCN4)cc3F)nc12 [A-966492]
- t1/2est average (PARP1 [1]; PARP1, +HPF1, average): 38.5 min
- slope (PARP1 [1]; [6]): 149 s/nM and 124 s/nM and 110 s/nM
- t1/2est (PARP1 [1]; [6]): 39 min and 37.5 min
- t1/2est average (PARP1 [1]; PARP1, without HPF1, average): 4.58 min
- slope (PARP1 [1]; [7]): 34.7 s/nM and 49.9 s/nM and 38.6 s/nM
- t1/2est (PARP1 [1]; [7]): 4.75 min and 4.5 min

SMILES: COC1CCN(C(=O)c2cc(Cc3n[nH]c(=O)c4ccccc34)ccc2F)CC1 [AZD-2461]
- Fold (t-test) (PARP1 [1]; PARP1, fold-difference in Ki caused by the addition of HPF1): 2.9 ** fold
- Ki (PARP1 [1]; PARP1 alone, p18mer DNA, 2 mM NAD+, read-out: Ki): 2.2 ± 0.6 nM

SMILES: COC1CCN(C(=O)c2cc(Cc3n[nH]c(=O)c4ccccc34)ccc2F)CC1 [AZD]
- koff (est) average (PARP1 [1]; PARP1, +HPF1, average): ≥ 0.00058 s⁻¹
- t1/2est average (PARP1 [1]; PARP1, +HPF1, average): 20.75 min
- Ki (PARP1 [1]; PARP1, +HPF1, average, read-out: Ki average): 0.78 nM
- slope (PARP1 [1]; [6]): 49 s/nM and 51 s/nM and 67.1 s/nM and 43 s/nM
- t1/2est (PARP1 [1]; [6]): 17 min and 20 min and 29 min
- Ki (PARP1 [1]; PARP1, +HPF1, single experiment, read-out: Ki): 0.82 nM and 0.78 nM and 0.6 nM and 0.93 nM
- kon ratio (PARP1 [1]; PARP1, ratio of averages with and without HPF1): 1.75
- Ki ratio (PARP1 [1]; PARP1, ratio of averages without and with HPF1): 2.85
- koff (est) average (PARP1 [1]; PARP1, without HPF1, average): ≥ 0.00295 s⁻¹
- t1/2est average (PARP1 [1]; PARP1, without HPF1, average): 4.72 min
- Ki (PARP1 [1]; PARP1, without HPF1, average, read-out: Ki average): 2.23 nM
- slope (PARP1 [1]; [7]): 9.4 s/nM and 16.4 s/nM and 15.8 s/nM and 16.1 s/nM and 10.2 s/nM and 11.0 s/nM
- Ki (PARP1 [1]; PARP1, without HPF1, single experiment, read-out: Ki): 2.96 nM and 1.69 nM and 1.76 nM and 1.73 nM and 2.72 nM and 2.53 nM

SMILES: NC(=O)c1cccc2cn(-c3ccc([C@@H]4CCCNC4)cc3)nc12 [Nira]
- t1/2est average (PARP1 [1]; PARP1, +HPF1, average): 28.33 min
- slope (PARP1 [1]; [6]): 60.3 s/nM and 61 s/nM and 66.7 s/nM
- t1/2est (PARP1 [1]; [6]): 29 min and 28 min
- t1/2est average (PARP1 [1]; PARP1, without HPF1, average): 8.7 min
- t1/2est (PARP1 [1]; [7]): 5.5 min and 11 min and 9.5 min and 8 min

SMILES: O=C(c1cc(Cc2n[nH]c(=O)c3ccccc23)ccc1F)N1CCN(C(=O)C2CC2)CC1 [Olaparib]
- t1/2est (PARP2 [2]): 4.17 min and 4.5 min and 3 min and 5.5 min and 4 min and 2.83 min
- t1/2est average (PARP2 [2]): 4.05 min and 4.08 min

SMILES: CNCc1ccc(-c2[nH]c3cc(F)cc4c3c2CCNC4=O)cc1 [Rucaparib]
- PARP-trapping (PARP1 [3]): strong
- t1/2est average (PARP1 [1]; PARP1, +HPF1, average): 250 min
- t1/2est (PARP1 [1]; [6]): 250 min
- t1/2est average (PARP1 [1]; PARP1, without HPF1, average): 57.5 min

SMILES: Cn1ncnc1[C@H]1c2n[nH]c(=O)c3cc(F)cc(c23)N[C@@H]1c1ccc(F)cc1 [Tala]
- t1/2est average (PARP2 [2]; PARP2, +HPF1, average): 9.17 min
- slope (PARP2 [2]; [8]): 91 s/nM and 65 s/nM
- t1/2est (PARP2 [2]; [8]): 11 min and 10 min and 6.5 min
- slope (PARP2 [2]; [9]): 180 s/nM and 131 s/nM and 191 s/nM
- t1/2est (PARP2 [2]; [9]): 7.5 min and 6.5 min
- t1/2est average (PARP2 [2]; PARP2, without HPF1, average): 6.83 min
- t1/2est average (PARP1 [1]; PARP1, +HPF1, average): >333.33 min
- t1/2est (PARP1 [1]; [6]): 333.33 min
- t1/2est average (PARP1 [1]; PARP1, without HPF1, average): 121.7 min
- slope (PARP1 [1]; [7]): 1743 s/nM and 2697 s/nM and 2953 s/nM and 2451 s/nM
- t1/2est (PARP1 [1]; [7]): 138.5 min and 95.83 min and 118.5 min and 134 min

SMILES: C[C@]1(c2nc3c(C(N)=O)cccc3[nH]2)CCCN1 [Veliparib]
- PARP-trapping (PARP1 [3]): weak

SMILES: CC1=CC(C)=[N+]2C1=Cc1ccc(CCC(=O)N3CCN(C(=O)c4cc(Cc5n[nH]c(=O)c6ccccc56)ccc4F)CC3)n1[B-]2(F)F [fl-Ola]
- Off (individual replicates) (PARP2 [4]; PARP2, Nuc147): 0.000128 per sec and 0.000098 per sec and 0.000096 per sec and 0.000087 per sec
- On (individual replicates) (PARP2 [4]; PARP2, Nuc147): 0.06047 and 0.0458 and 0.0509 and 0.06962
- On average (PARP2 [4]; PARP2, Nuc147): 5.7 per uM per sec
- Off (individual replicates) (PARP2 [4]; PARP2, Nuc147/HPF1): 0.000060 per sec and 0.000066 per sec and 0.000047 per sec
- On (individual replicates) (PARP2 [4]; PARP2, Nuc147/HPF1): 0.02342 and 0.02572 and 0.02231 and 0.02096
- On average (PARP2 [4]; PARP2, Nuc147/HPF1): 2.3 per uM per sec
- Kd (PARP2 [4]; PARP2, Nuc165): 0.018 ± 0.0046 nM
- Kd (PARP2 [4]; PARP2, Nuc165/HPF1): 0.0249 ± 0.0047 nM
- Kd (PARP2 [4]; PARP2, p18mer): 0.0141 ± 0.0039 nM
- Off (individual replicates) (PARP2 [4]; PARP2, p18mer): 0.000127 per sec and 0.000133 per sec and 0.000111 per sec and 0.000117 per sec
- Off average (PARP2 [4]; PARP2, p18mer): 0.44 per hr
- On (individual replicates) (PARP2 [4]; PARP2, p18mer): 0.06673 and 0.08057 and 0.1117
- On average (PARP2 [4]; PARP2, p18mer): 8.6 per uM per sec
- Kd (PARP2 [4]; PARP2, p18mer/HPF1): 0.0205 ± 0.0048 nM
- Off (individual replicates) (PARP2 [4]; PARP2, p18mer/HPF1): 0.000135 per sec and 0.000112 per sec and 0.000093 per sec
- On (individual replicates) (PARP2 [4]; PARP2, p18mer/HPF1): 0.06627 and 0.04795 and 0.05623 and 0.05079
- On average (PARP2 [4]; PARP2, p18mer/HPF1): 5.5 per uM per sec
- off rate (single run) (PARP1 [5]; PARP1, Nuc165): 0.004215 per min and 0.004911 per min and 0.004071 per min and 0.00473 per min and 0.004639 per min
- on rate average (PARP1 [5]; PARP1, Nuc165): 2.17 per uM per sec
- off rate (single run) (PARP1 [5]; PARP1, Nuc165+HPF1): 0.001434 per min and 0.001853 per min and 0.001613 per min and 0.002575 per min and 0.002863 per min
- on rate (observed, single run) (PARP1 [5]; PARP1, Nuc165+HPF1): 0.03904 and 0.05638 and 0.0311 and 0.04561 and 0.04092 and 0.03175 and 0.05953
- on rate average (PARP1 [5]; PARP1, Nuc165+HPF1): 4.35 per uM per sec
- off rate (single run) (PARP1 [5]; PARP1, buffer): 0.001297 per min and 0.001272 per min and 0.001404 per min and 0.001129 per min
- on rate (observed, single run) (PARP1 [5]; PARP1, buffer): 0.002763 and 0.003297 and 0.003517 and 0.004488 and 0.003954 and 0.005011 and 0.004368 and 0.00415
- on rate average (PARP1 [5]; PARP1, buffer): 0.39 per uM per sec
- off rate (single run) (PARP1 [5]; PARP1, p18mer): 0.005934 per min and 0.004771 per min and 0.005583 per min and 0.004919 per min and 0.005548 per min
- on rate average (PARP1 [5]; PARP1, p18mer): 1.27 per uM per sec
- off rate (single run) (PARP1 [5]; PARP1, p18mer+HPF1): 0.002334 per min and 0.002172 per min and 0.002936 per min and 0.003134 per min and 0.003344 per min
- on rate (observed, single run) (PARP1 [5]; PARP1, p18mer+HPF1): 0.02205 and 0.01731 and 0.01849 and 0.01852 and 0.01515 and 0.01847 and 0.02629
- on rate average (PARP1 [5]; PARP1, p18mer+HPF1): 1.95 per uM per sec

SMILES: NC(=O)c1ccc(I)c([N+](=O)[O-])c1 [iniparib]
- Inhibition of DNA release from PARP1 (PARP1 [1]; PARP1, 20-2500 nM): not an inhibitor of PARP1; also recorded: does not have this effect
